According to US12433861B2, “Compositions and methods for treating reperfusion injury or hemorrhage after recanalization therapy” (GNT Pharma Co., Ltd., priority 2020, dated 2025):
Entries after “also recorded” stand apart in the source; their conditions may differ.

Columns and labels:
healthy volunteers = conditions: human, in vivo
Description: NMDA receptor antagonists were reported to produce serious side effects in healthy humans.

[1] = system: mice treated with rt-PA after embolic stroke; assay: Embolic stroke in mice treated with rt-PA: hemorrhage and brain injury at 24 h; type: in vivo; conditions: 10 mg/kg rt-PA plus nelonemdazK IV at 4.5 hours after embolic stroke, analyzed at 24 hours
Protocol: Embolic stroke was induced by injection of blood clot into the right internal carotid artery of mice. Animals received intravenous administration of saline, 10 mg/kg rt-PA, or 10 mg/kg rt-PA plus nelonemdazK through femoral vein at 4.5 hours after embolic stroke. rt-PA was dissolved in water and injected over 20 min. NelonemdazK was dissolved in saline and injected over 5 min immediately after rt-PA infusion. Hemorrhage and brain injury were analyzed 24 hours after embolic stroke.

[2] = system: acute ischemic stroke patients; assay: ENIS phase II trial: acute ischemic stroke patients receiving a thrombolytic drug; type: in vivo, human; conditions: for good recovery ratio (patients with NIHSS score of 0-1 or decrease of NIHSS score≥4): 14 days; for ratio of mRS 0 (no symptoms at all): 6,000 mg
Protocol: (§1) The ENIS trial was to examine efficacy as well as safety of the intravenous infusions of nelonemdazK for acute ischemic stroke patients (35-80 years old) receiving at least one kind of thrombolytic drugs including rtPA or urokinase within 8 hours of onset. A total of 238 patients were enrolled for the ENIS trial and allocated randomly in a double-blinded manner to one of 4 groups for the intravenous infusions of test drugs as follows: (Group A) placebo [0.9% normal saline], (Group B) 2,750 mg nelonemdazK for 5 days [500 mg for 1st infusion followed by 2nd-10th infusions approximately at 12 h intervals (250 mg for each infusion)], (Group C) 5,250 mg nelonemdazK for 5 days [750 mg for 1st infusion followed by 2nd-10th infusions approximately at 12 h intervals (500 mg for each)], and (Group D) 6,000 mg nelonemdazK for 5 days [1500 mg for 1st infusion followed by 2nd-10th infusions approximately at 12 h intervals (500 mg for each)]. Acute ischemic stroke patients due to occlusion in internal carotid artery system within 8 hours of onset were enrolled. Patients with The National Institutes of Health Stroke Scale (NIHSS; range 0-42, with higher scores indicating greater stroke severity) scores of 4 to 22 and limb weakness including motor arm or motor leg score≥2 of NIHSS were included. All the patients received at least one kind of thrombolytic therapy before treatment of any study drug.
The beneficial effects of nelonemdazK were further observed by analyzing “the ratio of patients with NIHSS score of 0-1 or decrease of NIHSS score≥4 (=the good recovery ratio)” at 14 days after drug treatment. […] This implies that the beneficial effects of nelonemdazK are better for moderate to severe ([…]) ischemic stroke patients than mild (NIHSS score≤5) patients.

adult rats = conditions: rat, in vivo, iv, 200 mg/kg
[3] = system: adult rats treated with rt-PA after 3-h tMCAO; assay: rt-PA-induced hemorrhagic transformation following 3-h occlusion of middle cerebral artery (tMCAO); type: in vivo, rat; conditions: for hemorrhage / hemorrhagic transformation in the brain: 10 mg/kg rt-PA IV plus 30 mg/kg IV after reperfusion, 3-h tMCAO, 24 h, potassium salt
Protocol: Male Sprague-Dawley rats (300-350 g; 15-16 animals/group) were anesthetized with chloral hydrate (400 mg/kg, IP) and the anesthesia was sustained for about 1.5 h during the procedure. The rectal temperature was recorded and maintained at 37.0-37.5° C. using a rectal probe and homoeothermic blanket controlled by a temperature control unit (Letica Scientific Instruments). Occlusion of the MCA was done according to the previous report (Gwag et al., 2007). Briefly, the right common carotid artery, external carotid artery (ECA), and internal carotid artery (ICA) were exposed. A length of 4-0 monofilament nylon suture (17 mm, pre-coated with silicone) with its tip rounded by heating near a flame was advanced from the lumen of the ICA until it blocked the origin of the middle cerebral artery (MCA). The suture remained for 3 h and was withdrawn for reperfusion. After 24 h, the brain was removed immediately, placed in the fixative for 15 min, and used for further analysis.
Animals received transient focal cerebral ischemia for 3 h as described above with intravenous administration of 10 mg/kg rt-PA or 10 mg/kg rt-PA plus 30 mg/kg nelonemdazK after reperfusion. rt-PA (10 mg/kg) dissolved in water for injection ([…]) was injected through femoral vein over 20 min from 5 min after reperfusion. NelonemdazK (30 mg/kg) dissolved in saline (6 mg/mL; 5 mL/kg) was injected through femoral vein over 5 min immediately after the end of rt-PA infusion.

ischemic stroke patients = conditions: human, in vivo, 5 days
Protocol: NMDA receptor antagonists can cause adverse events in ischemic stroke patients.
as §1

O=C([O-])c1cc(NCc2c(F)c(F)c(C(F)(F)F)c(F)c2F)ccc1O.[K+] [nelonemdazK, 2-Hydroxy-5-(2,3,5,6-tetrafluoro-4-trifluoromethylbenzylamino)benzoic acid potassium salt]
Number of subjects showing abnormal behavior: Agitation (healthy volunteers): 0 | Number of subjects showing abnormal behavior: Catatonia (healthy volunteers): 0 | Number of subjects showing abnormal behavior: Confusion (healthy volunteers): 0 | Number of subjects showing abnormal behavior: Hallucination (healthy volunteers): 0 | Number of subjects showing abnormal behavior: Paranoia (healthy volunteers): 0 | levels of hemoglobin in the ischemic brain region [1]: significantly reduced | hemorrhage / hemorrhagic transformation in the ischemic brain region ([1]; potassium salt, 10 mg/kg): significantly reduced; also recorded: prevents hemorrhagic transformation | percentage of mRS 0-2 (functional independence) ([2]; 6,000 mg for 5 days, 14, 30, and 90 days, baseline NIHSS 6-24, vs placebo, potassium salt): increases | good recovery ratio (patients with NIHSS score of 0-1 or decrease of NIHSS score≥4) ([2]; 6,000 mg (N=9), baseline NIHSS 9-24 (placebo 20%, p=0.022)): 50% | good recovery ratio (patients with NIHSS score of 0-1 or decrease of NIHSS score≥4) ([2]; 6,000 mg (N=36), baseline NIHSS 6-24 (placebo 25.53%, p=0.106)): 41.67% | ratio of mRS 0 (no symptoms at all) ([2]; at 14 days, baseline NIHSS 6-24 (placebo 12%)): 25% | ratio of mRS 0 (no symptoms at all) ([2]; at 30 days, baseline NIHSS 6-24 (placebo 16%)): 34% | ratio of mRS 0 (no symptoms at all) ([2]; at 90 days, baseline NIHSS 6-24 (placebo 26%)): 45% | neuronal injury (adult rats): not observed | rate of hemorrhagic transformation ([3]; 10 mg/kg rt-PA IV plus 30 mg/kg IV after 3-h tMCAO, p<0.05 Fisher's exact test): significantly reduced | hemorrhage / hemorrhagic transformation in the brain ([3]; listed as NelonemdazK): prevented hemorrhage | hemorrhage / hemorrhagic transformation in the brain [3]: prevents hemorrhagic transformation | % of subjects showing abnormal behavior: Agitation (ischemic stroke patients): 2% | % of subjects showing abnormal behavior: Confusion (ischemic stroke patients): 0 (0%) | % of subjects showing abnormal behavior: Delirium (ischemic stroke patients): 0 (0%) | % of subjects showing abnormal behavior: Hallucination (ischemic stroke patients): 0 (0%) | % of subjects showing abnormal behavior: Paranoia (ischemic stroke patients): 0 (0%) | % of subjects showing abnormal behavior: Stupor (ischemic stroke patients): 1 (1%) | Number of subjects showing abnormal behavior: Agitation (ischemic stroke patients): 4 | Number of subjects showing abnormal behavior: Confusion (ischemic stroke patients): 0 (0%) | Number of subjects showing abnormal behavior: Delirium (ischemic stroke patients): 0 (0%) | Number of subjects showing abnormal behavior: Hallucination (ischemic stroke patients): 0 (0%) | Number of subjects showing abnormal behavior: Paranoia (ischemic stroke patients): 0 (0%) | Number of subjects showing abnormal behavior: Stupor (ischemic stroke patients): 1 (1%)
